Reference: patent US10413581B2, “Combination, composition, and method of administering the combination or composition to animals” (Phibro Animal Health Corporation, priority 2014, dated 2019)

Tests used:
Format in all cases: in vivo
[1] = system: coccidial contaminated litter; assay: Example 2: live performance of male broiler chickens, coccidial contaminated litter added to pens; conditions: 22 ppm Virginiamycin, throughout the test
Experimental: In this example, the live performance of male broiler chickens during a standard diet program with and without an embodiment of the disclosed combination was determined. In this embodiment, the combination comprised Virginiamycin and different levels of the composition, particularly 0 ppm, 150 ppm, 200 ppm, and 250 ppm, and further comprising Avatec 90. A disease challenge was presented in each pen by adding coccidial contaminated litter to the pen.

E. gallopavonis = assay: Example 10: oocysts per gram fecal material, E. gallopavonis; conditions: Composition 250 ppm, Monensin 68 ppm, alone or combined
Experimental: (§1) In this examples the effect of a composition comprising Quillaja saponaria and Yucca schidigera in combination with Monensin was determined. In some embodiments, the composition was a commercial product sold under the trade name MAGNI-PHI by Phibro Animal Health Corporation. Four treatment regimens were used: a control with no medication; 250 ppm of the composition; 68 ppm Monensin; and 250 ppm composition in combination with 68 ppm Monensin.
(§2) On Days 14, 21, and 28 fresh fecal samples were collected from each pen. These representative samples were tested to determine the degree of coccidia oocysts per gram of litter, by determining oocysts shedding/cycling. Oocysts per gram were determined for each sample.

coccidia = assay: Example 10: composition in combination with Monensin: performance, total coccidia oocysts per gram; conditions: Composition 250 ppm, Monensin 68 ppm, alone or combined; for Adj. FCR / Feed Intake / Wt. Gain: D 0-42
Experimental: as §1, §2

E. meleagrimitis = assay: Example 10: oocysts per gram fecal material, E. meleagrimitis; conditions: Composition 250 ppm, Monensin 68 ppm, alone or combined
Experimental: as §1, §2

E. adenoeides = assay: Example 10: oocysts per gram fecal material, E. adenoeides; conditions: Composition 250 ppm, Monensin 68 ppm, alone or combined
Experimental: as §1, §2

In the case of Virginiamycin, the feed conversion rates [1] is reported as “improved feed conversion rates”.
With `CC[C@@]1([C@@H]2O[C@@H]([C@H]3O[C@@](O)(CO)[C@H](C)C[C@@H]3C)C[C@@H]2C)CC[C@H]([C@]2(C)CC[C@]3(C[C@H](O)[C@@H](C)[C@@H]([C@@H](C)[C@@H](OC)[C@H](C)C(=O)O)O3)O2)O1` [Monensin] the “Oocysts per gram fecal material E. gallo.” value (E. gallopavonis; D 14) was 430ab oocysts per gram, the “Oocysts per gram fecal material E. gallo.” value (E. gallopavonis; D 21) was 623a oocysts per gram and the “Oocysts per gram fecal material E. gallo.” value (E. gallopavonis; D 28) was 119a oocysts per gram. For the same compound, the “Oocysts per gram fecal material Total” value (coccidia; D 14) was 1571bc oocysts per gram, the “Oocysts per gram fecal material Total” value (coccidia; D 21) was 3409c oocysts per gram and the “Oocysts per gram fecal material Total” value (coccidia; D 28) was 252b oocysts per gram. For the same compound, the “Adj. FCR” value (coccidia; Day 14) was 1.473b, the “Feed Intake” value (coccidia; Day 14) was 20.04b and the “Wt. Gain” value (coccidia; Day 14) was 0.261a kg. The “Adj. FCR” value (coccidia; Day 28) was 1.562b, the “Feed Intake” value (coccidia; Day 28) was 51.81a and the “Wt. Gain” value (coccidia; Day 28) was 0.703a kg. The “Adj. FCR” value (coccidia; Day 42) was 1.707b, the “Feed Intake” value (coccidia; Day 42) was 124.77b and the “Wt. Gain” value (coccidia; Day 42) was 1.614bc kg. For the same compound, the “Oocysts per gram fecal material E. mel.” value (E. meleagrimitis; D 14) was 786b oocysts per gram, the “Oocysts per gram fecal material E. mel.” value (E. meleagrimitis; D 21) was 2549c oocysts per gram and the “Oocysts per gram fecal material E. mel.” value (E. meleagrimitis; D 28) was 74b oocysts per gram. For the same compound, the “Oocysts per gram fecal material E. aden.” value (E. adenoeides; D 14) was 356ab oocysts per gram, the “Oocysts per gram fecal material E. aden.” value (E. adenoeides; D 21) was 237bc oocysts per gram and the “Oocysts per gram fecal material E. aden.” value (E. adenoeides; D 28) was 29b oocysts per gram.
